Earlier results on 1 compound are cited in patent US20100069389A1, “NOVEL FORMS OF REBOXETINE” (Bionevia Pharmaceuticals, Inc., priority 2008, published 2010).

The structures appear in SMILES notation.

The conditions of the data set: humans; Denolle et al., Clin Pharmacol Ther. 1999.

Consider `CCOc1ccccc1OC(c1ccccc1)C1CNCCO1` (racemic) [Racemic reboxetine, (2RS)-2-[(RS)-(2-ethoxyphenoxy)-phenylmethyl]morpholine], for which the “Blood pressure and heart rate increases compared with (R,R)-reboxetine” value was “greater blood pressure increases and heart rate increases in humans than does administration of (R,R)-reboxetine”.
